Test results: the kinase profiling compilation of Christmann-Franck et al. (2016)
Several values for one entry are separate records, joined by “and”; a condition that tells them apart may be missing. Equal values may be shown once.

Tests used:
Test in all cases: radiometric filter-binding kinase assay, Kinase HotSpot
Details in all cases: compound 0.5 µM; ATP 10 µM
MARK2 (human) = MARK2 (human) (UniProt Q7KZI7)
TSSK1B (human) = TSSK1B (human) (UniProt Q9BXA7)
MKNK2 (human) = MKNK2 (human) (UniProt Q9HBH9)
CSK (human) = CSK (human) (UniProt P41240)
MAP4K5 (human) = MAP4K5 (human) (UniProt Q9Y4K4)
MARK3 (human) = MARK3 (human) (UniProt P27448)
DAPK3 (human) = DAPK3 (human) (UniProt O43293)
VRK1 (human) = VRK1 (human) (UniProt Q99986)
EPHB3 (human) = EPHB3 (human) (UniProt P54753)
EGFR (human) = EGFR (human) (UniProt P00533)
MAP3K5 (human) = MAP3K5 (human) (UniProt Q99683)
Sequence of MAP3K5 (human) (Q99683 whole entry, looked up): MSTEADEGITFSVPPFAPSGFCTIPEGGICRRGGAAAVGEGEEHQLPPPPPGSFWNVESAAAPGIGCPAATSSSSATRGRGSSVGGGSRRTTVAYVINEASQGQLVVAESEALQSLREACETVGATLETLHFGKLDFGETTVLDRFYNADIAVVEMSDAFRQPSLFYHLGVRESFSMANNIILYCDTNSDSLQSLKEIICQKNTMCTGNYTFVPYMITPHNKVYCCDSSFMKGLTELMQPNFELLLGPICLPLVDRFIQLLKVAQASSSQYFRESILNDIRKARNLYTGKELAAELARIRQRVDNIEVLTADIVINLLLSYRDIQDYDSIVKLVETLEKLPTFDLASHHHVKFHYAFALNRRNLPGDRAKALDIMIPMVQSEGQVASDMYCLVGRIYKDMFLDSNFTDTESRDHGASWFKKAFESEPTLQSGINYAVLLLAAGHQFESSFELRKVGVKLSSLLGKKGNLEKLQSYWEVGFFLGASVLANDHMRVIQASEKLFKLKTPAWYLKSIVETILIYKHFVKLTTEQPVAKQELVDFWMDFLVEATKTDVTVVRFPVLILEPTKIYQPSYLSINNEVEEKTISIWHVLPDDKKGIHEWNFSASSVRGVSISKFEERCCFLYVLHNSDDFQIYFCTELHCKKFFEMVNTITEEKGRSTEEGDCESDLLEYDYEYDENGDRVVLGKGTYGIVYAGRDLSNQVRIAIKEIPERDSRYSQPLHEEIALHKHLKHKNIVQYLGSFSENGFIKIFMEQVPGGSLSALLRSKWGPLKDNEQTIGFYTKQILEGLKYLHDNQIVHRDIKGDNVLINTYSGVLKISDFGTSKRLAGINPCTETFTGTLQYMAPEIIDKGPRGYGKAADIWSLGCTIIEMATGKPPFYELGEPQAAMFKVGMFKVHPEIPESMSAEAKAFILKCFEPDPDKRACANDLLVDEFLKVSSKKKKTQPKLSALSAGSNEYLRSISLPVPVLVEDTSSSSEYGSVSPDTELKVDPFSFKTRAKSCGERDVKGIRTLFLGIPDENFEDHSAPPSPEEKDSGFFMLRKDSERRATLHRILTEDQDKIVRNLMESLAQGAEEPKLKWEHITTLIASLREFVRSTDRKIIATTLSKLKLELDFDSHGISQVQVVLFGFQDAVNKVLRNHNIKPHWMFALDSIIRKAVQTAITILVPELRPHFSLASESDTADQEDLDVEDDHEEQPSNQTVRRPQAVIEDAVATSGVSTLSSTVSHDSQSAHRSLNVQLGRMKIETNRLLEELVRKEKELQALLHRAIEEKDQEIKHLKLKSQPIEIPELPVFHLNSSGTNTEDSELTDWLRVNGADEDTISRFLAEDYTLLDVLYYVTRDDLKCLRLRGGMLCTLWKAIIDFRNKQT

CDK6 CCND3 (human) = CDK6 CCND3 (human) (UniProt P30281+Q00534)
PRKCI (human) = PRKCI (human) (UniProt P41743)
GRK7 (human) = GRK7 (human) (UniProt Q8WTQ7)
Sequence of GRK7 (human) (Q8WTQ7 whole entry, looked up): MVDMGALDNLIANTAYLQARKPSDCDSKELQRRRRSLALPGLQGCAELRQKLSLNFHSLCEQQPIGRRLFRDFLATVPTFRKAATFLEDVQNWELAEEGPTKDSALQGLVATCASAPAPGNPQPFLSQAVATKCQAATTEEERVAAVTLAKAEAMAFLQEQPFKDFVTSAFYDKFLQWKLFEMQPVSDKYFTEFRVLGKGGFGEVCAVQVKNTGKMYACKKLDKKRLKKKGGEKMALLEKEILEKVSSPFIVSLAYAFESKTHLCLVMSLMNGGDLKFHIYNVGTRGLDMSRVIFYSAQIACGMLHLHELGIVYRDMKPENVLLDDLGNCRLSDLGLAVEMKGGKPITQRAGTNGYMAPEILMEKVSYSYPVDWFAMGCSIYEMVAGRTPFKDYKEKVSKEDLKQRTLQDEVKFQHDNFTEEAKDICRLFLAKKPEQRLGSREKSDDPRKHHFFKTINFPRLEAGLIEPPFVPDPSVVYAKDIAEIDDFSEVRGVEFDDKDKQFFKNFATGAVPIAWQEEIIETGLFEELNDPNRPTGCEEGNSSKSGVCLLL

ACVRL1 (human) = ACVRL1 (human) (UniProt P37023)
Sequence of ACVRL1 (human) (P37023 whole entry, looked up): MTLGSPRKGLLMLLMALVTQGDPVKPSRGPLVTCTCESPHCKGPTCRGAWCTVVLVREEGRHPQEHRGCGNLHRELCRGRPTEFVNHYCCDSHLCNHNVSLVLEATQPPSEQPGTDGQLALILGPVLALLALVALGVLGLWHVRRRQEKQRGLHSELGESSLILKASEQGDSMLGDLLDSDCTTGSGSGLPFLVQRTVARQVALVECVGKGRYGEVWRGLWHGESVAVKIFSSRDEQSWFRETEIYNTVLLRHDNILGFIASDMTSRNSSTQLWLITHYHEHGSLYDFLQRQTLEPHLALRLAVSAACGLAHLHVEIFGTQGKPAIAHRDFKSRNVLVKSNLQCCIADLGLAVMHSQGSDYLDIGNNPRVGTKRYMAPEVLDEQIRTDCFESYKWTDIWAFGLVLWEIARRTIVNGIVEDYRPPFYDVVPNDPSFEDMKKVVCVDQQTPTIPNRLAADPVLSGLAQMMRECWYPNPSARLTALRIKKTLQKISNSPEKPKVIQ

CSNK1A1 (human) = CSNK1A1 (human) (UniProt P48729)
NEK6 (human) = NEK6 (human) (UniProt Q9HC98)
CDK1 CCNA2 (human) = CDK1 CCNA2 (human) (UniProt P06493+P20248)
RAF1 (human) = RAF1 (human) (UniProt P04049)
ABL1 (human) = ABL1 (human) (UniProt P00519)
PRKG1 (human) = PRKG1 (human) (UniProt Q13976)
CLK1 (human) = CLK1 (human) (UniProt P49759)
CLK4 (human) = CLK4 (human) (UniProt Q9HAZ1)
CDK3 CCNE1 (human) = CDK3 CCNE1 (human) (UniProt Q00526+P24864)
DYRK1A (human) = DYRK1A (human) (UniProt Q13627)
BRSK2 (human) = BRSK2 (human) (UniProt Q8IWQ3)
BRSK1 (human) = BRSK1 (human) (UniProt Q8TDC3)
Sequence of BRSK1 (human) (Q8TDC3 whole entry, looked up): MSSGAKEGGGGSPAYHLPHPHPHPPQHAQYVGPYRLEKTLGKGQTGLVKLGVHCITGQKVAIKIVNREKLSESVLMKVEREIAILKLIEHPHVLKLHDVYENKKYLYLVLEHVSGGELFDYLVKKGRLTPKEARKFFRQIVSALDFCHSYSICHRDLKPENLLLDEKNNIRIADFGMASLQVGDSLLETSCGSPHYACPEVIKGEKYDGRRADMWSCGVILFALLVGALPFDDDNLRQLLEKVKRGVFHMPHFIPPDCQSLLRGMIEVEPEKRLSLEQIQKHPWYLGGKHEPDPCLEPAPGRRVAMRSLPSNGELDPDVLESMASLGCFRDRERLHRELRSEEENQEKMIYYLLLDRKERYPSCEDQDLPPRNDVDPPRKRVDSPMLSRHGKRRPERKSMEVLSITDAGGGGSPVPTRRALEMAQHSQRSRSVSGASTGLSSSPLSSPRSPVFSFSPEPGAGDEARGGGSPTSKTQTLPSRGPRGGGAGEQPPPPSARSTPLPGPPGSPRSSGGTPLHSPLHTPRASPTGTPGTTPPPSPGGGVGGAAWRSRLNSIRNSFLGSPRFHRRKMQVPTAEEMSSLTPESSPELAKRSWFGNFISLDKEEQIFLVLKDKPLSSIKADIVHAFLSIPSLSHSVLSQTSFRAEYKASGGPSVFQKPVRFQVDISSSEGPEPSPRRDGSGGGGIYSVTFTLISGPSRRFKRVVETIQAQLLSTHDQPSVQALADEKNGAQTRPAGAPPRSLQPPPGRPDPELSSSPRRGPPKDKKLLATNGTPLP

PRKX (human) = PRKX (human) (UniProt P51817)
Sequence of PRKX (human) (P51817 whole entry, looked up): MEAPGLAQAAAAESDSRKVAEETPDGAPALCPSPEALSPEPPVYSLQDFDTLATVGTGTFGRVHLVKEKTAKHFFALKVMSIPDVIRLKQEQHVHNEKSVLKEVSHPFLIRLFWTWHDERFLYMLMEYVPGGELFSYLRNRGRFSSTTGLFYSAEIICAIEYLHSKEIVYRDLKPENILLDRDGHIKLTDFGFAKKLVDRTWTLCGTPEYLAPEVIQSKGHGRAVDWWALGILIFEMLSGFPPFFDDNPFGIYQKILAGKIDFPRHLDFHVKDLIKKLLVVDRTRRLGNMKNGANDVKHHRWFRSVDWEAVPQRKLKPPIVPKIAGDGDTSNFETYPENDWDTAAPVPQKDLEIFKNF

STK24 (human) = STK24 (human) (UniProt Q9Y6E0)
Sequence of STK24 (human) (Q9Y6E0 whole entry, looked up): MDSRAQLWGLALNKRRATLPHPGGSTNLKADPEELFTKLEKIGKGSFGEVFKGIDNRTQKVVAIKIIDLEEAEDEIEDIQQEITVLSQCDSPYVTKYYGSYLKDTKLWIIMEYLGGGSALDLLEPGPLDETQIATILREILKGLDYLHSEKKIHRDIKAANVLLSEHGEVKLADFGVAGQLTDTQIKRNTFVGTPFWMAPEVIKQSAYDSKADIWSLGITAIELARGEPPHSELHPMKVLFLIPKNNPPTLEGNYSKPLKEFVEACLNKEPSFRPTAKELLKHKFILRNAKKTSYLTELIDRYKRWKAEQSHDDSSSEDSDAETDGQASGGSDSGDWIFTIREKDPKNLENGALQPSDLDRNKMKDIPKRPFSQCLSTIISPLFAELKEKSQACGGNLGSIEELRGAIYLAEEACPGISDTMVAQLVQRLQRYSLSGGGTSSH

CLK3 (human) = CLK3 (human) (UniProt P49761)
STK25 (human) = STK25 (human) (UniProt O00506)
MAP3K14 (human) = MAP3K14 (human) (UniProt Q99558)
CSNK1G3 (human) = CSNK1G3 (human) (UniProt Q9Y6M4)
STK3 (human) = STK3 (human) (UniProt Q13188)
CAMK4 (human) = CAMK4 (human) (UniProt Q16566)
TGFBR2 (human) = TGFBR2 (human) (UniProt P37173)
PIM1 (human) = PIM1 (human) (UniProt P11309)
KDR (human) = KDR (human) (UniProt P35968)
CDK9 CCNT1 (human) = CDK9 CCNT1 (human) (UniProt P50750+O60563)
IRAK4 (human) = IRAK4 (human) (UniProt Q9NWZ3)
RET (human) = RET (human) (UniProt P07949)
EPHA6 (human) = EPHA6 (human) (UniProt Q9UF33)

Sequence of MARK2 (human) (Q7KZI7 whole entry, looked up): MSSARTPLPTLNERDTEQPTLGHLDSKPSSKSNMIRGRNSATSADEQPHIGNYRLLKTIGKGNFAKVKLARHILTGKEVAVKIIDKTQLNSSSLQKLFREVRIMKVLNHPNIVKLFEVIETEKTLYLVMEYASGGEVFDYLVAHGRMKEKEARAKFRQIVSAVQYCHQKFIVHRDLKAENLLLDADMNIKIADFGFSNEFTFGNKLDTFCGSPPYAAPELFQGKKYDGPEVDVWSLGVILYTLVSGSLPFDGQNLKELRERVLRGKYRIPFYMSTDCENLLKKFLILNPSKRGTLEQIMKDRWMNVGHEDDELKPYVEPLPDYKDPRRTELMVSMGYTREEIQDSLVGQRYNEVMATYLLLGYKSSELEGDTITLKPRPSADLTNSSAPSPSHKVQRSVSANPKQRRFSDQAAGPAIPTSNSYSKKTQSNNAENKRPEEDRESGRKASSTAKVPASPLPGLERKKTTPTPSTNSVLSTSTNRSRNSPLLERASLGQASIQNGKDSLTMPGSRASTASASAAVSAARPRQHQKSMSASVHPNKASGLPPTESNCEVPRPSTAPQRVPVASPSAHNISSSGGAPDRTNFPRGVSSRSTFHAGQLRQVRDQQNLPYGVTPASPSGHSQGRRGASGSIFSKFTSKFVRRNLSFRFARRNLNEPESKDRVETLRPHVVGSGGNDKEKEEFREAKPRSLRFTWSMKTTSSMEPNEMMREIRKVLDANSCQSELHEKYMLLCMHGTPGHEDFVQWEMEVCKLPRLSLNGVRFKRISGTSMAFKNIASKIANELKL

O=C(Nc1cccc(Nc2nccc(Nc3cccc(C(F)(F)F)c3)n2)c1)C1CC1
residual activity (MARK2 (human)): 97%
residual activity (TSSK1B (human)): 100%
residual activity (MKNK2 (human)): 91.3%
residual activity (CSK (human)): 97.4%
residual activity (MAP4K5 (human)): 94.9%
residual activity (MARK3 (human)): 102%
residual activity (DAPK3 (human)): 94.3%
residual activity (VRK1 (human)): 88.2%
residual activity (EPHB3 (human)): 100%
residual activity (EGFR (human)): 87.6%
residual activity (MAP3K5 (human)): 111%
residual activity (CDK6 CCND3 (human)): 98.5%
residual activity (PRKCI (human)): 91.3%
residual activity (GRK7 (human)): 101%
residual activity (ACVRL1 (human)): 84.6%
residual activity (CSNK1A1 (human)): 95.8%
residual activity (NEK6 (human)): 103%
residual activity (CDK1 CCNA2 (human)): 95.9%
residual activity (RAF1 (human)): 98.7%
residual activity (ABL1 (human)): 94.9%
residual activity (PRKG1 (human)): 97.6% and 99.3%
residual activity (CLK1 (human)): 102%
residual activity (CLK4 (human)): 84.3%
residual activity (CDK3 CCNE1 (human)): 98.1%
residual activity (DYRK1A (human)): 107%
residual activity (BRSK2 (human)): 89.3%
residual activity (BRSK1 (human)): 97.1%
residual activity (PRKX (human)): 94.6%
residual activity (STK24 (human)): 98.3%
residual activity (CLK3 (human)): 104%
residual activity (STK25 (human)): 98.1%
residual activity (MAP3K14 (human)): 109%
residual activity (CSNK1G3 (human)): 93.5%
residual activity (STK3 (human)): 96%
residual activity (CAMK4 (human)): 97.9%
residual activity (TGFBR2 (human)): 91.6%
residual activity (PIM1 (human)): 103%
residual activity (KDR (human)): 91.6%
residual activity (CDK9 CCNT1 (human)): 86.8%
residual activity (IRAK4 (human)): 146%
residual activity (RET (human)): 88.6%

CC(=O)c1ccc(N2CCOCC2)cc1O
residual activity (MARK2 (human)): 107%
residual activity (TSSK1B (human)): 107%
residual activity (MKNK2 (human)): 90.7%
residual activity (CSK (human)): 99.1%
residual activity (MAP4K5 (human)): 102%
residual activity (MARK3 (human)): 108%
residual activity (DAPK3 (human)): 98.1%
residual activity (VRK1 (human)): 98.1%
residual activity (EPHB3 (human)): 92.3%
residual activity (EGFR (human)): 97.4%
residual activity (MAP3K5 (human)): 99.4%
residual activity (CDK6 CCND3 (human)): 97.4%
residual activity (PRKCI (human)): 96.3%
residual activity (GRK7 (human)): 100%
residual activity (ACVRL1 (human)): 103%
residual activity (CSNK1A1 (human)): 110%
residual activity (NEK6 (human)): 96.5%
residual activity (CDK1 CCNA2 (human)): 99.8%
residual activity (RAF1 (human)): 96.2%
residual activity (ABL1 (human)): 98.9%
residual activity (PRKG1 (human)): 100% and 84.1%
residual activity (CLK1 (human)): 110%
residual activity (CLK4 (human)): 111%
residual activity (CDK3 CCNE1 (human)): 102%
residual activity (DYRK1A (human)): 98%
residual activity (BRSK2 (human)): 100%
residual activity (BRSK1 (human)): 97.6%
residual activity (PRKX (human)): 105%
residual activity (STK24 (human)): 99%
residual activity (CLK3 (human)): 101%
residual activity (STK25 (human)): 90.9%
residual activity (MAP3K14 (human)): 82.6%
residual activity (CSNK1G3 (human)): 101%
residual activity (STK3 (human)): 98.9%
residual activity (CAMK4 (human)): 93%
residual activity (TGFBR2 (human)): 132%
residual activity (PIM1 (human)): 97.2%
residual activity (KDR (human)): 97.7%
residual activity (CDK9 CCNT1 (human)): 100%
residual activity (IRAK4 (human)): 120%
residual activity (RET (human)): 103%

CNC(=O)c1cc(Oc2ccc(NC(=O)Nc3ccc(Cl)c(C(F)(F)F)c3)cc2)ccn1
residual activity (MARK2 (human)): 94.9%
residual activity (EPHA6 (human)): 42%
residual activity (TSSK1B (human)): 98.7%
residual activity (MKNK2 (human)): 70.3%
residual activity (CSK (human)): 90.3%
residual activity (MAP4K5 (human)): 57%
residual activity (MARK3 (human)): 103%
residual activity (DAPK3 (human)): 92.9%
residual activity (VRK1 (human)): 99.3%
residual activity (EPHB3 (human)): 95.5%
residual activity (MAP3K5 (human)): 103%
residual activity (CDK6 CCND3 (human)): 104%
residual activity (PRKCI (human)): 89.9%
residual activity (GRK7 (human)): 97.3%
residual activity (ACVRL1 (human)): 104%
residual activity (CSNK1A1 (human)): 97.8%
residual activity (NEK6 (human)): 105%
residual activity (CDK1 CCNA2 (human)): 100%
residual activity (PRKG1 (human)): 104% and 88.6%
residual activity (CLK1 (human)): 97.7%
residual activity (CLK4 (human)): 95.2%
residual activity (CDK3 CCNE1 (human)): 96.5%
residual activity (DYRK1A (human)): 103%
residual activity (BRSK2 (human)): 103%
residual activity (BRSK1 (human)): 95.8%
residual activity (PRKX (human)): 97.7%
residual activity (STK24 (human)): 110%
residual activity (CLK3 (human)): 99.3%
residual activity (STK25 (human)): 104%
residual activity (MAP3K14 (human)): 96.4%
residual activity (CSNK1G3 (human)): 99.8%
residual activity (STK3 (human)): 96.9%
residual activity (CAMK4 (human)): 107%
residual activity (TGFBR2 (human)): 99.9%
residual activity (PIM1 (human)): 97.1%
residual activity (CDK9 CCNT1 (human)): 98.3%
residual activity (IRAK4 (human)): 99.6%
residual activity (RET (human)): 1.78%

CCN(CC)C(=O)c1ccc(Nc2nc(OCC3CCCCC3)c3nc[nH]c3n2)cc1
residual activity (MARK2 (human)): 75.3%
residual activity (TSSK1B (human)): 15.3%
residual activity (MKNK2 (human)): 89.3%
residual activity (CSK (human)): 83.1%
residual activity (MAP4K5 (human)): 78%
residual activity (MARK3 (human)): 85.4%
residual activity (DAPK3 (human)): 98.4%
residual activity (VRK1 (human)): 93.1%
residual activity (EPHB3 (human)): 99.5%
residual activity (EGFR (human)): 88.5%
residual activity (MAP3K5 (human)): 96.9%
residual activity (CDK6 CCND3 (human)): 47.2%
residual activity (PRKCI (human)): 97.2%
residual activity (GRK7 (human)): 103%
residual activity (ACVRL1 (human)): 106%
residual activity (CSNK1A1 (human)): 104%
residual activity (NEK6 (human)): 101%
residual activity (CDK1 CCNA2 (human)): 95.2%
residual activity (RAF1 (human)): 86.3%
residual activity (ABL1 (human)): 67.1%
residual activity (PRKG1 (human)): 89.8% and 96.1%
residual activity (CLK1 (human)): 74.1%
residual activity (CLK4 (human)): 44.2%
residual activity (CDK3 CCNE1 (human)): 90.4%
residual activity (DYRK1A (human)): 91.9%
residual activity (BRSK2 (human)): 82.5%
residual activity (BRSK1 (human)): 84%
residual activity (PRKX (human)): 93.4%
residual activity (STK24 (human)): 84.5%
residual activity (CLK3 (human)): 84.1%
residual activity (STK25 (human)): 85.2%
residual activity (MAP3K14 (human)): 132%
residual activity (CSNK1G3 (human)): 61.7%
residual activity (STK3 (human)): 62.1%
residual activity (CAMK4 (human)): 97.7%
residual activity (TGFBR2 (human)): 75.4%
residual activity (PIM1 (human)): 95.6%
residual activity (KDR (human)): 76.5%
residual activity (CDK9 CCNT1 (human)): 88.8%
residual activity (IRAK4 (human)): 92.4%
residual activity (RET (human)): 7.65%

CCN(CC)CCNC(=O)c1c(C)[nH]c(/C=C2\C(=O)Nc3ccc(F)cc32)c1C
residual activity (EPHA6 (human)): 29.5%
residual activity (TSSK1B (human)): 20.7%
residual activity (MKNK2 (human)): 99.3%
residual activity (CSK (human)): 90.2%
residual activity (MAP4K5 (human)): 4.06%
residual activity (MARK3 (human)): 30.4%
residual activity (DAPK3 (human)): 74.2%
residual activity (VRK1 (human)): 97.3%
residual activity (EPHB3 (human)): 77.4%
residual activity (MAP3K5 (human)): 100%
residual activity (CDK6 CCND3 (human)): 59.7%
residual activity (PRKCI (human)): 103%
residual activity (GRK7 (human)): 71.3%
residual activity (ACVRL1 (human)): 112%
residual activity (NEK6 (human)): 89%
residual activity (CDK1 CCNA2 (human)): 98.4%
residual activity (RAF1 (human)): 110%
residual activity (PRKG1 (human)): 65.3% and 88.8%
residual activity (CLK1 (human)): 23.3%
residual activity (CLK4 (human)): 26.3%
residual activity (CDK3 CCNE1 (human)): 91%
residual activity (DYRK1A (human)): 56.9%
residual activity (BRSK2 (human)): 54.5%
residual activity (BRSK1 (human)): 45.1%
residual activity (PRKX (human)): 105%
residual activity (STK24 (human)): 39.7%
residual activity (CLK3 (human)): 105%
residual activity (STK25 (human)): 76.1%
residual activity (MAP3K14 (human)): 127%
residual activity (STK3 (human)): 24.8%
residual activity (CAMK4 (human)): 88.6%
residual activity (TGFBR2 (human)): 92.5%
residual activity (PIM1 (human)): 94.4%
residual activity (CDK9 CCNT1 (human)): 88.7%
residual activity (IRAK4 (human)): 27.4%
residual activity (RET (human)): 3.43%
